What is called Km is the concentration of substrate that gives half-maximal velocity.

Km data for seven compounds are collected here from article PMC12191596, “Gene Expression and Enzyme Kinetics of Polyphenol Oxidases in Strawberry and Their Possible Involvement in Enzymatic Browning Reactions in Strawberry Nectar” (Foods, 2025).

Experiment [1] has as its system PPO4 (FaPPO 4). Kind of experiment: spectrophotometry, […] nm. It is filed as biochemical, Fragaria vesca. As to conditions: 50 mM Tris-HCl pH 7, 1 mM SDS, 25 °C.
The test system of experiment [2] is T1, PPO1 (FaPPO 1).
T1 construct: latent PPO, transit peptide removed, C-terminal shielding domain kept, N-terminal 6xHis tag, pET28, E. coli BL21(DE3)
Kind of experiment: spectrophotometry, […] nm. It is filed as biochemical. Particulars: 50 mM Tris-HCl pH 7, 0.7 mM SDS, 25 °C.

The subject of experiment [3] is T2, PPO2 (FaPPO 2).
T2 construct: latent PPO, transit peptide removed, C-terminal shielding domain kept, N-terminal 6xHis tag, non-codon-optimized cDNA, pET28, E. coli BL21(DE3)
In words: spectrophotometry, […] nm. The experiment is classed as biochemical, Fragaria vesca. Particulars: 50 mM Tris-HCl pH 7, 0.7 mM SDS, 25 °C.

Experiment [4] has as its system T1, PPO1 (FaPPO 1). In words: spectrophotometry, […] nm. The experiment is classed as biochemical. Particulars: 50 mM Tris-HCl pH 7, 0.7 mM SDS, 25 °C. This is another data set of the same source.
Experiment [5] has as its system PPO4 (FaPPO 4). Kind of experiment: spectrophotometry, […] nm. It is filed as biochemical, Fragaria vesca. Particulars: 50 mM Tris-HCl pH 7, 1 mM SDS, 25 °C. The source holds these as a separate data set.
Experiment [6] has as its system T2, PPO2 (FaPPO 2). In words: spectrophotometry, […] nm. The experiment is classed as biochemical, Fragaria vesca. Particulars: 50 mM Tris-HCl pH 7, 0.7 mM SDS, 25 °C. The source holds these as a separate data set.
The subject of experiment [7] is T2, PPO2 (FaPPO 2). In words: spectrophotometry, […] nm. It is filed as biochemical, Fragaria vesca. As to conditions: 50 mM Tris-HCl pH 7, 0.7 mM SDS, 25 °C. This is another data set of the same source.
Experiment [8] has as its system PPO4 (FaPPO 4). Kind of experiment: spectrophotometry, […] nm. It is filed as biochemical, Fragaria vesca. As to conditions: 50 mM Tris-HCl pH 7, 1 mM SDS, 25 °C. The source holds these as a separate data set.
The test system of experiment [9] is T1, PPO1 (FaPPO 1). In words: spectrophotometry, […] nm. The experiment is classed as biochemical. As to conditions: 50 mM Tris-HCl pH 7, 0.7 mM SDS, 25 °C. This is another data set of the same source.
The test system of experiment [10] is T1, PPO1 (FaPPO 1). In words: spectrophotometry, […] nm. The experiment is classed as biochemical. As to conditions: 50 mM Tris-HCl pH 7, 0.7 mM SDS, 25 °C. This is another data set of the same source.
For experiment [11], the system named is PPO4 (FaPPO 4). In words: spectrophotometry, […] nm. The experiment is classed as biochemical, Fragaria vesca. As to conditions: 50 mM Tris-HCl pH 7, 1 mM SDS, 25 °C. This is another data set of the same source.
Experiment [12] concerns T2, PPO2 (FaPPO 2). Kind of experiment: spectrophotometry, […] nm. The experiment is classed as biochemical, Fragaria vesca. Particulars: 50 mM Tris-HCl pH 7, 0.7 mM SDS, 25 °C. The source holds these as a separate data set.
In experiment [13] the test system is T2, PPO2 (FaPPO 2). In words: spectrophotometry, […] nm, Hill fit. As to conditions: 50 mM Tris-HCl pH 7, 0.7 mM SDS, 25 °C, cooperative. The experiment is classed as biochemical, Fragaria vesca.
The subject of experiment [14] is T1, PPO1 (FaPPO 1). Kind of experiment: spectrophotometry, […] nm, Hill fit. As to conditions: 50 mM Tris-HCl pH 7, 0.7 mM SDS, 25 °C, cooperative. The experiment is classed as biochemical.
Experiment [15] has as its system PPO4 (FaPPO 4). Kind of experiment: spectrophotometry, […] nm. It is filed as biochemical, Fragaria vesca. Particulars: 50 mM Tris-HCl pH 7, 1 mM SDS, 25 °C. This is another data set of the same source.
Experiment [16] has as its system T1, PPO1 (FaPPO 1). In words: spectrophotometry, […] nm. The experiment is classed as biochemical. Particulars: 50 mM Tris-HCl pH 7, 0.7 mM SDS, 25 °C. This is another data set of the same source.
Experiment [17] deals with T2, PPO2 (FaPPO 2). Kind of experiment: spectrophotometry, […] nm. The experiment is classed as biochemical, Fragaria vesca. As to conditions: 50 mM Tris-HCl pH 7, 0.7 mM SDS, 25 °C. This is another data set of the same source.

On to `Oc1cc(O)c2c(c1)O[C@H](c1ccc(O)c(O)c1)[C@@H](O)C2` [Catechin], for which the Km amounted to 870 ± 80 µM in the experiment on PPO4 (FaPPO 4) [1], 120 ± 30 µM with PPO1 (FaPPO 1) [2] and 190 ± 40 µM with PPO2 (FaPPO 2) [3].

For `Oc1ccccc1O` [Catechol], the Km was determined as 27 ± 2 mM in the experiment on PPO1 (FaPPO 1) [4], 39 ± 12 mM with PPO4 (FaPPO 4) [5] and 7.5 ± 0.6 mM in the experiment with PPO2 (FaPPO 2) [6].

`NCCc1ccc(O)c(O)c1` [Dopamine]: the Km in the experiment on PPO2 (FaPPO 2) [7] stood at 950 ± 120 µM; in the experiment with PPO4 (FaPPO 4) [8], 990 ± 110 µM; in the experiment on PPO1 (FaPPO 1) [9], 600 ± 100 µM.

Turning to `NCCc1ccc(O)cc1` [Tyramine], the results for the Km in the experiment on PPO1 (FaPPO 1) [10], in the experiment with PPO4 (FaPPO 4) [11] and with PPO2 (FaPPO 2) [12] were 500 ± 100 µM, 1.3 ± 0.1 mM and 600 ± 100 µM, respectively.

Turning to `O=C(/C=C/c1ccc(O)c(O)c1)O[C@@H]1C[C@](O)(C(=O)O)C[C@@H](O)[C@H]1O` [Chlorogenic acid], the Km stood at 2.7 ± 0.4 mM with PPO1 (FaPPO 1) [4], 1.3 ± 0.2 mM with PPO4 (FaPPO 4) [5] and 1.3 ± 0.2 mM with PPO2 (FaPPO 2) [6].

In the case of `O=C(CCc1ccc(O)cc1)c1c(O)cc(O)cc1O` [Phloretin], the Km stood at 600 ± 400 µM with PPO2 (FaPPO 2) [13] and 82 ± 4 µM with PPO1 (FaPPO 1) [14].

Take `N[C@@H](Cc1ccc(O)c(O)c1)C(=O)O` [L-DOPA]: the Michaelis constant (Km) in the experiment with PPO4 (FaPPO 4) [15] worked out at 3.2 ± 1.6 mM; in the experiment with PPO1 (FaPPO 1) [16] it was 2 ± 0.4 mM; with PPO2 (FaPPO 2) [17], 5.7 ± 1.9 mM.
